From the supplement of paper PMC10883282

Experiments:
Assay in all cases: relative viability vs DMSO control (72 h) (fraction); higher = more viable cells
A204 = test system: A204
In short: (§1)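 Plates held 72 h at 37 °C and 5% CO2 contained sarcoma cell lines seeded in 384-well format to reach 80–90% confluence, plus 2.5 µl of serially diluted compound added after 24 h. Source plate concentrations ran from 10 mM to 0.0002 mM, with 0.1% DMSO as vehicle and a 5 µM positive control. Percent growth from ATPLite readings, averaged over up to triplicate wells, gave relative viability. Values were rescaled with 1 as full and 0 as none.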

G401 = test system: G401
In short: as §1

HS729 = test system: HS729
In short: as §1

KHOS-240S = test system: KHOS-240S
In short: as §1

MES-SA = test system: MES-SA
In short: as §1

SK-ES-1 = test system: SK-ES-1
In short: as §1

SK-LMS-1 = test system: SK-LMS-1
In short: as §1

SW1353 = test system: SW1353
In short: as §1

SW684 = test system: SW684
In short: as §1

SW872 = test system: SW872
In short: as §1

SW982 = test system: SW982
In short: as §1

SYO-1 = test system: SYO-1
In short: as §1

CC(C)(O)CNc1nc(Nc2ccnc(C(F)(F)F)c2)nc(-c2cccc(C(F)(F)F)n2)n1 [Enasidenib]
Conditions | relative viability
A204, 0.00017 µM | 1.12
A204, 0.00051 µM | 1.08
A204, 0.00152 µM | 1.11
A204, 0.00457 µM | 1.08
A204, 0.01372 µM | 1.1
A204, 0.04115 µM | 1.11
A204, 0.1235 µM | 1.1
A204, 0.3704 µM | 1.11
A204, 1.111 µM | 1.11
A204, 3.333 µM | 0.99
A204, 10 µM | 0.7231
G401, 0.00017 µM | 0.984
G401, 0.00051 µM | 0.973
G401, 0.00152 µM | 0.984
G401, 0.00457 µM | 1.03
G401, 0.01372 µM | 1.025
G401, 0.04115 µM | 1.01
G401, 0.1235 µM | 1.05
G401, 0.3704 µM | 1.02
G401, 1.111 µM | 0.98
G401, 3.333 µM | 0.994
G401, 10 µM | 0.958
HS729, 0.00017 µM | 0.966
HS729, 0.00051 µM | 0.974
HS729, 0.00152 µM | 0.995
HS729, 0.00457 µM | 1
HS729, 0.01372 µM | 1.002
HS729, 0.04115 µM | 0.985
HS729, 0.1235 µM | 1.02
HS729, 0.3704 µM | 0.941
HS729, 1.111 µM | 0.994
HS729, 3.333 µM | 1.01
HS729, 10 µM | 0.928
KHOS-240S, 0.00017 µM | 1.08
KHOS-240S, 0.00051 µM | 1.06
KHOS-240S, 0.00152 µM | 1.053
KHOS-240S, 0.00457 µM | 1.06
KHOS-240S, 0.01372 µM | 1.08
KHOS-240S, 0.04115 µM | 1.073
KHOS-240S, 0.1235 µM | 1.09
KHOS-240S, 0.3704 µM | 1.09
KHOS-240S, 1.111 µM | 1.09
KHOS-240S, 3.333 µM | 1.081
KHOS-240S, 10 µM | 0.989
MES-SA, 0.00017 µM | 0.911
MES-SA, 0.00051 µM | 0.947
MES-SA, 0.00152 µM | 0.958
MES-SA, 0.00457 µM | 0.956
MES-SA, 0.01372 µM | 0.9539
MES-SA, 0.04115 µM | 0.932
MES-SA, 0.1235 µM | 0.9612
MES-SA, 0.3704 µM | 0.945
MES-SA, 1.111 µM | 0.926
MES-SA, 3.333 µM | 0.918
MES-SA, 10 µM | 0.808
SK-ES-1, 0.00017 µM | 1.02
SK-ES-1, 0.00051 µM | 1.04
SK-ES-1, 0.00152 µM | 1.03
SK-ES-1, 0.00457 µM | 1.04
SK-ES-1, 0.01372 µM | 1.02
SK-ES-1, 0.04115 µM | 0.996
SK-ES-1, 0.1235 µM | 1.02
SK-ES-1, 0.3704 µM | 0.968
SK-ES-1, 1.111 µM | 0.921
SK-ES-1, 3.333 µM | 0.893
SK-ES-1, 10 µM | 0.663
SK-LMS-1, 0.00017 µM | 1.03
SK-LMS-1, 0.00051 µM | 0.979
SK-LMS-1, 0.00152 µM | 1.01
SK-LMS-1, 0.00457 µM | 1.02
SK-LMS-1, 0.01372 µM | 1.01
SK-LMS-1, 0.04115 µM | 1.01
SK-LMS-1, 0.1235 µM | 1.02
SK-LMS-1, 0.3704 µM | 1.06
SK-LMS-1, 1.111 µM | 1.13
SK-LMS-1, 3.333 µM | 1.11
SK-LMS-1, 10 µM | 0.83
SW684, 0.00017 µM | 1.22
SW684, 0.00051 µM | 1.21
SW684, 0.00152 µM | 1.18
SW684, 0.00457 µM | 1.179
SW684, 0.01372 µM | 1.19
SW684, 0.04115 µM | 1.2
SW684, 0.1235 µM | 1.2
SW684, 0.3704 µM | 1.17
SW684, 1.111 µM | 1.21
SW684, 3.333 µM | 1.11
SW684, 10 µM | 1.01
SW872, 0.00017 µM | 1.04
SW872, 0.00051 µM | 1.07
SW872, 0.00152 µM | 1.08
SW872, 0.00457 µM | 1.07
SW872, 0.01372 µM | 1.08
SW872, 0.04115 µM | 1.06
SW872, 0.1235 µM | 1.06
SW872, 0.3704 µM | 1.068
SW872, 1.111 µM | 1.07
SW872, 3.333 µM | 1.07
SW872, 10 µM | 1.06
SW982, 0.00017 µM | 1.04
SW982, 0.00051 µM | 1.04
SW982, 0.00152 µM | 1.05
SW982, 0.00457 µM | 1.06
SW982, 0.01372 µM | 1.05
SW982, 0.04115 µM | 1.06
SW982, 0.1235 µM | 1.06
SW982, 0.3704 µM | 1.102
SW982, 1.111 µM | 1.129
SW982, 3.333 µM | 1.18
SW982, 10 µM | 1.22
SW1353, 0.00017 µM | 0.997
SW1353, 0.00051 µM | 1.03
SW1353, 0.00152 µM | 0.99
SW1353, 0.00457 µM | 1.02
SW1353, 0.01372 µM | 1.03
SW1353, 0.04115 µM | 1.01
SW1353, 0.1235 µM | 1.01
SW1353, 0.3704 µM | 1.04
SW1353, 1.111 µM | 0.9847
SW1353, 3.333 µM | 0.994
SW1353, 10 µM | 0.86
SYO-1, 0.00017 µM | 0.969
SYO-1, 0.00051 µM | 0.959
SYO-1, 0.00152 µM | 0.987
SYO-1, 0.00457 µM | 0.982
SYO-1, 0.01372 µM | 0.973
SYO-1, 0.04115 µM | 0.992
SYO-1, 0.1235 µM | 0.996
SYO-1, 0.3704 µM | 0.979
SYO-1, 1.111 µM | 0.624
SYO-1, 3.333 µM | 0.968
SYO-1, 10 µM | 0.828
